Measured values taken from patent US20250308625A1, “METHOD FOR ESTIMATING A DYNAMIC MOLECULAR PROGRAM OF A CELL” (Yale University, priority 2022, published 2025).

Target: T1, ESRRA (Homo sapiens, UniProt P11474)
T1 construct: endogenous in cells; host or cells: HCC38 CD44hi cells (2D culture)
T1 sequence (P11474 1-423): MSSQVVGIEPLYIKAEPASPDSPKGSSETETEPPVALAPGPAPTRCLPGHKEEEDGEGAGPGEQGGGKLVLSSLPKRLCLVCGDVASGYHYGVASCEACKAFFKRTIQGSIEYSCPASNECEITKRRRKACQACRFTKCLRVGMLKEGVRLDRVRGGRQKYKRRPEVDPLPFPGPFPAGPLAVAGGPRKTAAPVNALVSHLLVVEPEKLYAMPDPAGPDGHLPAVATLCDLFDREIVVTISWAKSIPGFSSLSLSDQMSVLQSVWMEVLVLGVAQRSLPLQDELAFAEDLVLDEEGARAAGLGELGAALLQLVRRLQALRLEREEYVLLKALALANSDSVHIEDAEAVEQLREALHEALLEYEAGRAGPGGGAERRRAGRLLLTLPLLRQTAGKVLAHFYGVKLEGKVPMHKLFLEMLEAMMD
Assay: Western blot of CDH1 expression after ESRRA knockdown (siRNA) or ESRRA inhibition (C14) in 2D cultured HCC38 CD44hi cells
Assay type: cell-based
Details: 2D culture, C14 at 5 and 10 μM vs DMSO, 48 hours post-treatment, normalized to β-Actin, n=3, p≤0.05
Protocol: Preliminary validation of the MET network included an in-vitro knockdown of ESRRA in HCC38 CD44^hi cells (n=3 biological replicates). Predesigned siRNA specific to ESRRA and scrambled siRNA were purchased from Integrated DNA Technologies, USA (TriFECTa® RNAi Kit, Design ID hs.Ri.ESRRA.13). HCC38 CD44^hi cells were seeded in 24 well plates at a density of 9000 cells/well and ESRRA knockdown was performed using 10 nM of pooled siRNA (hs.Ri.ESRRA.13.1, hs.Ri.ESRRA.13.2 and hs.Ri.ESRRA.13.3) using Lipofectamine RNAiMax (ThermoFisher Scientific, USA) as per the manufacturer's protocol. Cells were harvested for protein extraction 48 hrs post siRNA transfection to study the downstream effect on CDH1 expression upon ESRRA knockdown using western blot. […]
Proteins were extracted from control and treated cells using ice cold modified RIPA buffer (50 mM Tris-HCl pH 7.5, 150 mM NaCl, 1 mM EDTA, 1 mM EGTA, 1% Triton X-100, 0.1% SDS with supplemented with 1× protease and phosphatase inhibitor cocktails). […] Proteins were quantified using the Pierce™ BCA Protein Assay Kit (Cat. 23227, Thermo Fisher Scientific, USA) as per the manufacturer's instructions. […] The signal intensity of the bands in western blots was quantified using Image Studio Lite version 5.2 (LI-COR Biotechnology, USA).

CDH1 expression (western blot, relative fold-change): significant increase
Compound: CC(C)c1cccc(-n2cc(C(=O)c3ccccc3N)nn2)c1 [ESRRA antagonist, (2-Aminophenyl) (1-(3-isopropylphenyl)-1H-1,2,3-triazol-4-yl) methanone]
